Data set [1] addresses T1, P450cam (Pseudomonas putida, UniProt P00183). Nature of the data set: Estimation of koff for the P450cam·camphor complex by metyrapone trapping. It is filed as binding.
Data set [2] has as its target T1, P450cam. Nature of the data set: Steady-state substrate binding titrations. Particulars: for Reversal of the high-spin spectral change at high ligand concentration: camphor up to 2 mM.
Data set [3] concerns the target T1, P450cam. Nature of the data set: Stopped-flow ligand binding kinetics. Particulars: for Binding rate measurable by stopped-flow (ΔA390-A420): dead time 2 ms; for Dominant binding mechanism: from dependence of eigenvalues on ligand and P450cam concentration.
In data set [4] the target is T1, P450cam. Put plainly: Catalytic activity: NADH oxidation with Pdx and PdR. It is filed as biochemical. Particulars: for Rate/Kd (specificity constant): NADH oxidation rate divided by Kd.
Data set [5] can be described thus: Solubility in H2O. It counts as physicochemical. The settings on record: water.
For data set [6], the target named is T1, P450cam. Particulars: reported previously; cited from earlier work.
The target in data set [7] is T1, P450cam. Particulars: cited from earlier work.
In data set [8] the test system is P450tcu. The settings on record: 5-exo hydroxylation; cited from earlier work.
For data set [9], the system named is P450cam·Pdx complex. Particulars: ref Hollingsworth et al., 46; cited from earlier work.
Setting [10] is: 20 mM potassium MOPS (pH 7.4), 200 mM KCl.
Setting [11] is: eigenvalues vs camphor concentration.
Where [12] appears, read: fit to λ = kf + kr·S/(Kd + S), induced fit model.

Data on six molecules can be found in article PMC8318206 (ACS catalysis, 2020).

pKd: −log10 of the molar value. Several values for one entry are separate records, joined by “and”; a condition that tells them apart may be missing. Equal values may be shown once. Entries after “also recorded” stand apart in the source; their conditions may differ. Read-outs that look alike come from different tables or passages of the source.

Broadly, the pKd is the negative decadic logarithm of the Kd, by convention in mol/L. Broadly, the solubility is the concentration that dissolves in the medium under given conditions. For orientation: kcat means the maximal rate divided by the concentration of active sites.

For the molecule `CC(C)(C(=O)c1cccnc1)c1cccnc1` [metyrapone], the “First-order rate of binding to ligand-free P450cam (k2)” value in [1] (2 mM metyrapone (final)) is 18.9 s⁻¹.
Take `O=C1CC2CC[C@H]1C2` [norcamphor]: the pKd in data set [2] was 3.60; in data set [6], 3.46. Moreover, in data set [3], the “Binding rate measurable by stopped-flow (ΔA390-A420)” value was “changes could not be observed”. For the same molecule, in data set [4], the “Rate/Kd (specificity constant)” value amounted to 70000 M⁻¹ s⁻¹. Also, the solubility in [5] is at least 50000 µM. The NADH coupling in data set [7] is given as 15%.
(+)-α-pinene: the negative logarithm of the Kd (pKd) in data set [2] (20 mM potassium MOPS (pH 7.4), 200 mM KCl, absence of Pdx, 23 °C) was 5.47; in [6] it was 5.96. In addition, in data set [3] (2 μM P450cam and 30 μM (+)-α-pinene), the kobs of binding amounted to 81 ± 3 s⁻¹. The Dominant binding mechanism entry in [3] is “conformational selection”. In addition, the “Specificity constant (rate/Kd)” value in data set [7] (based on NADH oxidation) was 1.3e+06 M⁻¹ s⁻¹; in data set [7] (based on product formation), 300000 M⁻¹ s⁻¹. For the same molecule, the NADH coupling in data set [7] is reported as 23%. Also, the Oxidation rate in data set [7] (ref Bell et al., 37) is 0.3 s⁻¹.
`O=C1C2CC3CC(C2)CC1C3` [2-adamantanone]: the pKd in data set [2] is 5.57; in [6] it was 4.47 and 4.35. For the same molecule, the Exponential of binding worked out at 72 s⁻¹ in data set [3] (2 μM 2-adamantanone and 1 μM P450cam); 82 s⁻¹ in data set [3] (2 μM 2-adamantanone and 10 μM P450cam). The same molecule returned a kobs of binding in data set [3] (2 μM P450cam and 4 μM 2-adamantanone) of 78 ± 2 s⁻¹. In addition, the Dominant binding mechanism result in data set [3] is “conformational selection”. Further, in data set [4], the “% relative to camphor (Rate/Kd)” value is 19%. Moreover, the “Rate/Kd (specificity constant)” value in data set [4] worked out at 1.3e+06 M⁻¹ s⁻¹. The solubility in data set [5] is at least 2000 µM. The Oxidation rate in data set [7] (ref White et al., 54) is ~ 1 s^−1; in data set [7] (ref White et al., 54, listed as 2-Adamantone) it was 1 s⁻¹. Also, the “Specificity constant (rate/Kd)” value in data set [7] (reported by others, ref 54) is 240000 M⁻¹ s⁻¹.
As for `CC1(C)CC(=O)CC(C)(C)C1` [3,3,5,5-tetramethylcyclohexanone], the values for the pKd in [2] and in [6] were 5.30 and 5.46, respectively. For the same molecule, in data set [2] (setting [10]), the “Reversal of the high-spin spectral change at high ligand concentration” value is reported as “did reverse the spin state change at higher concentrations”. Besides, the “Binding rate measurable by stopped-flow (ΔA390-A420)” value in data set [3] is on record as “changes could not be observed”. For the same molecule, the “% relative to camphor (Rate/Kd)” value in [4] is given as 0.6%. In addition, the “Rate/Kd (specificity constant)” value in data set [4] came out at 40000 M⁻¹ s⁻¹. For the same molecule, in [5], the solubility was at least 2000 µM.
Consider d-(+)-camphor, for which the “Reversal of the high-spin spectral change at high ligand concentration” value in data set [2] (setting [10]) was “no reversal of the high-spin spectral change was observed; also recorded: did not show any evidence for reversal”. Further, the “Eigenvalue λ of binding” value in data set [3] (6 μM P450cam mixed with 2 μM camphor) was 69 ± 2 s⁻¹. Besides, in [3] (setting [11]), the “Intercept of linear regression of eigenvalues (koff, 2-state system)” value was 35 ± 4 s⁻¹; the “Slope of linear regression of eigenvalues (second-order kon, 2-state system)” value is 2.4 (± 0.3) × 10^6 M^−1 s^−1 and 2.4 (± 0.3) M^−1 s^−1. Moreover, in data set [3] (setting [12]), the “kf (kforward), forward rate constant following camphor binding” value was 112 s⁻¹ and 112 ± 49 s⁻¹; the “kr (kreverse), reverse rate constant” value is 28 s⁻¹ and 28 ± 7 s⁻¹. The Dominant binding mechanism entry in [3] is “induced fit mechanism”. For the same molecule, the “koff (k-1) of the P450cam·camphor complex” value in data set [1] (2 μM P450cam, 10 μM camphor mixed with 2 mM metyrapone, KinTek Explorer fit) was 15 s⁻¹. Besides, the “kon in the minimal kinetic model” value in data set [1] (fit with koff = 15 s^−1 and Kd = […] μM) is 1.5e+07 M⁻¹ s⁻¹. In addition, in data set [4], the “% relative to camphor (Rate/Kd)” value was determined as 100% and the “Rate/Kd (specificity constant)” value was determined as 7e+06 M⁻¹ s⁻¹. The kcat in data set [7] (Km based on O2 as co-substrate) was 55 to 66 s⁻¹. Besides, the “Rate of 5-exo hydroxylation” value in [7] is above 10 s⁻¹. For the same molecule, the “Specificity constant (rate/Kd)” value in [7] (reported by others, ref 54) is 340000 M⁻¹ s⁻¹. Besides, the “Specificity constant (rate/Kd)” value in [7] (reported by others, ref 57) was 1.6e+07 M⁻¹ s⁻¹. For the same molecule, in data set [7] (typically reported), the “Rate on the basis of NADH oxidation” value was 7 to 14 s⁻¹. Moreover, the kcat in [8] is recorded as ~ 10 s^−1. The “Increase of the Kd of a P450cam·Pdx complex in the presence of camphor” value in data set [9] was 2 fold.
